Assay results from patent US20020133009A1, “Method for opening potassium channels” (priority 2001, published 2002).

Experiments:
maxi-K+ channels [1] = molecular target: T1, maxi-K+ channels (Bos taurus, UniProt Q28204); assay: Patch clamp whole-cell current measurements in cultured bovine trabecular meshwork (TM) cells; assay type: cell-based
T1 construct: endogenous in cells; host or cells: cultured bovine trabecular meshwork (TM) cells
Method: (§1) Patch clamp experiments of cultured human and bovine trabecular meshwork (TM) cells are performed. Nystatin in a pipette is used to obtain perforated patches. Whole-cell current measurements in the cells are performed. Voltages from −80mV to +120mV with 200-msec duration each are applied through the patch pipette, starting from a holding potential of −40mV. After each step, the voltage is returned to a holding potential of […] for 200-msec. Currents are continuously sampled at 100 Hz throughout the duration of the protocol.

maxi-K+ channels [2] = molecular target: T2, maxi-K+ channels (Homo sapiens, UniProt Q12791); assay: Patch clamp whole-cell current measurements in cultured human trabecular meshwork (TM) cells; assay type: cell-based
T2 construct: endogenous in cells; host or cells: cultured human trabecular meshwork (TM) cells
Method: as §1

T2 sequence (Q12791 whole entry): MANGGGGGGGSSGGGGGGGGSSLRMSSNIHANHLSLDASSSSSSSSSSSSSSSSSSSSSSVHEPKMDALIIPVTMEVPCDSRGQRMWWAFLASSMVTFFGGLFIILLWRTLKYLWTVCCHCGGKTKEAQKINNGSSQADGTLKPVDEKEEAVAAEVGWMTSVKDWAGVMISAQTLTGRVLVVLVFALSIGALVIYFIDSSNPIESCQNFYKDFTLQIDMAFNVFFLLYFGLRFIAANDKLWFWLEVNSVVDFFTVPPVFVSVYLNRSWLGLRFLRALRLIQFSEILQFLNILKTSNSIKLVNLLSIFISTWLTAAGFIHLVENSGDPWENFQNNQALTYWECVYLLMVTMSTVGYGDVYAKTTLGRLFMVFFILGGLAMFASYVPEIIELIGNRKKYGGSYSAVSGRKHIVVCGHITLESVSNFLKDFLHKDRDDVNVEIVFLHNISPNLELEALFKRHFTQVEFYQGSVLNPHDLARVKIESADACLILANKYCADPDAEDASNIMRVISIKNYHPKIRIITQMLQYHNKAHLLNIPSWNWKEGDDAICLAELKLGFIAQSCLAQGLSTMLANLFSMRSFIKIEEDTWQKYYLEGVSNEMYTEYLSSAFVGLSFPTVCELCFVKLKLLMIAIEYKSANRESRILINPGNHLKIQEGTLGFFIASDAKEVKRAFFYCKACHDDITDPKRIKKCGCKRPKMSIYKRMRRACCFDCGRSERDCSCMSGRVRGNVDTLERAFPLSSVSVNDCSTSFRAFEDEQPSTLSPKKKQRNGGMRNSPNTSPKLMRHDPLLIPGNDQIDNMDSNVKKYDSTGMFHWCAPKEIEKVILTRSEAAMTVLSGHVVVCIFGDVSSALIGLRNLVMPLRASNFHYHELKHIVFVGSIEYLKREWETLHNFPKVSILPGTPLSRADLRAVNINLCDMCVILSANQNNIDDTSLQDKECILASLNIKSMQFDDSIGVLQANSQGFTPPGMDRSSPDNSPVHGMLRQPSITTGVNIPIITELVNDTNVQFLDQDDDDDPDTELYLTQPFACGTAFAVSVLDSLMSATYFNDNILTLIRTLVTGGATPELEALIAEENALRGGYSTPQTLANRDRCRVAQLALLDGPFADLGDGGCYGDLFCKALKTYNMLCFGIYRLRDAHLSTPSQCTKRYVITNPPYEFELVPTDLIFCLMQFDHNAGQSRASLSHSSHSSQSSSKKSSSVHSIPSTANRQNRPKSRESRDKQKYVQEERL
T1 sequence (Q28204 whole entry): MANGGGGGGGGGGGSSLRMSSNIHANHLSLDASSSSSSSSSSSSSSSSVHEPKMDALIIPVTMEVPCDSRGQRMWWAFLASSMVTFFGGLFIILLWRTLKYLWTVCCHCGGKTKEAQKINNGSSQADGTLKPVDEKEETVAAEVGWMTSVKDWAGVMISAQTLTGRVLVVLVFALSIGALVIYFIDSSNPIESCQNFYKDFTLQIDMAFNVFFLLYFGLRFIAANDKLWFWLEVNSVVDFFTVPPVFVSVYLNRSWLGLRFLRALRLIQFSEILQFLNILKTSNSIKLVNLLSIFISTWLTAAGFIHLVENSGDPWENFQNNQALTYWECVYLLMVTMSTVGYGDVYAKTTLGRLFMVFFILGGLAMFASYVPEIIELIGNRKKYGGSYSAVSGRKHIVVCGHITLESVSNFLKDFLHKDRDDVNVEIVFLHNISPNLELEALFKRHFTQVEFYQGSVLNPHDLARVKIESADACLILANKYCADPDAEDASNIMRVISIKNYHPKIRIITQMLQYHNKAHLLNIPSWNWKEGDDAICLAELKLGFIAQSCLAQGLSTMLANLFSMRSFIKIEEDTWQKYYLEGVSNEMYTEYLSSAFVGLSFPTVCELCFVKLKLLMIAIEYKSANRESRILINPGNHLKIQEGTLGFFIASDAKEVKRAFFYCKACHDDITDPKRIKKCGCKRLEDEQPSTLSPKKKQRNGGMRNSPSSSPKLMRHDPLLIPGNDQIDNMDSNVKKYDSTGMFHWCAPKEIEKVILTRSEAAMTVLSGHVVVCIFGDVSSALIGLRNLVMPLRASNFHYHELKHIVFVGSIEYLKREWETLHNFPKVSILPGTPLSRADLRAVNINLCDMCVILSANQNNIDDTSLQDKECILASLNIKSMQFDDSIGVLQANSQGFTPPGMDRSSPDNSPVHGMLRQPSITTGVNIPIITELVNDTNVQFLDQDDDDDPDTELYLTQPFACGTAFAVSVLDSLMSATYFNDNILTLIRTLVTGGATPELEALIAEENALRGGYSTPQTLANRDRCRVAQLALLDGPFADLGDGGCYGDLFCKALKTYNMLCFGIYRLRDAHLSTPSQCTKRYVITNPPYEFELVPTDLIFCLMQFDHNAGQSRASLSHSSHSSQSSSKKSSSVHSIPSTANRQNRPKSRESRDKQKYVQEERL

“iberiotoxin: highly specific inhibitor of maxi-K+ channels (QFTDVDCSVSKECWSVCKDLFGVDRGKCMGKKCRCYQ; UniProt P24663 1-37, looked up) [reference compound]” was tested, and the “effect on unoprostone isopropyl-induced current” value (maxi-K+ channels [1]; TM cells, species not given) was “totally reduced” and the “total current inhibited by iberiotoxin, % of the control” value (maxi-K+ channels [1]; bovine trabecular meshwork cells incubated in acetylcholine, after unoprostone isopropyl stimulation) was “approximately 40%”.

With `CCCCCCCC(=O)CC[C@@H]1[C@@H](C/C=C\CCCC(=O)OC(C)C)[C@@H](O)C[C@H]1O` [unoprostone isopropyl, [1R-[1α(Z),2β,3a,5a]]-7-[3,5-dihydroxy-2-(3-oxodecyl)cyclopentyl]-5-heptenoic acid isopropyl ester] the “overall current of the cells” value (maxi-K+ channels [1]; bovine TM cells incubated in either acetylcholine or endothelin) was “stimulated the overall current”, the “total current, % of the control” value (maxi-K+ channels [1]; bovine trabecular meshwork cells incubated in acetylcholine, 10^-5 M unoprostone isopropyl, p<0.01) was “approximately 180%” and the “maxi-K+ channel opening” value (maxi-K+ channels [1]; conclusion from iberiotoxin block, TM cells, species not given) was “opens maxi-K+ channels”. For the same molecule, the “overall current of the cells” value (maxi-K+ channels [2]; human TM cells incubated in either acetylcholine or endothelin) was “stimulated the overall current”, the overall current (maxi-K+ channels [2]; human trabecular meshwork cells incubated in acetylcholine) was “stimulates the overall current” and the overall current (maxi-K+ channels [2]; human trabecular meshwork cells incubated in the presence of endothelin) was “induces an increase in the overall current”.
